These results are taken from patent publication US11129810B2, “Dosage regimen for the treatment of acute exacerbations of chronic obstructive pulmonary disease” (MEREO BIOPHARMA 1 LIMITED, priority 2016, dated 2021).

One data set deals with TNF-α. The data set is described as follows: TNF-α levels after single oral doses versus placebo (ex vivo LPS-challenged blood samples). The format is in vivo, human. Here is the method: (§1) A number of PK studies have been performed looking at both dosing intervals (Days 1, 3 and 5 (FIGS. 1-4, top panels) versus Days 1, 4 and 7 (FIGS. 1-4 bottom panels)), as well as dose levels (approximately 75/40/40 mg (FIG. 1); approximately 75/20/20 (FIG. 2); approximately 40/40/40 mg (FIG. 3); approximately 40/20/20 mg (FIG. 4), etc.). Based on exposures of the various regimens, there is limited benefit in dosing beyond Day 5 for a typical exacerbation.
Part 1 of study CBCT197A2101 was a randomized, double-blind, placebo-controlled, ascending single-dose study to evaluate safety, tolerability, PK and PD of oral 3-[5-amino-4-(3-cyanobenzoyl)-pyrazol-1-yl]-N-cyclopropyl-4-methylbenzamide in healthy subjects. Part 2 was a 14-day, randomized, double-blind, placebo-controlled, ascending multiple dose study evaluating the PK and PD of oral 3-[5-amino-4-(3-cyanobenzoyl)-pyrazol-1-yl]-N-cyclopropyl-4-methylbenzamide. PD effect of 3-[5-amino-4-(3-cyanobenzoyl)-pyrazol-1-yl]-N-cyclopropyl-4-methylbenzamide in Parts 1 and 2 was assessed by measuring TNFa levels in ex vivo LPS-challenged blood samples. […] Part 3 of the study determined the effect of a single oral administration of 3-[5-amino-4-(3-cyanobenzoyl)-pyrazol-1-yl]-N-cyclopropyl-4-methylbenzamide on serum TNFa levels after in vivo intravenous LPS challenge.

Data set [1] in a line: Human plasma PK of the Day 1, 3 and 5 dosing regimen. It is filed as in vivo.
Excerpt: This study investigated the efficacy, safety and tolerability of two different dosing regimens of 3-[5-amino-4-(3-cyanobenzoyl)-pyrazol-1-yl]-N-cyclopropyl-4-methylbenzamide added to SoC (systemic corticosteroids and/or antibiotics) versus placebo added to SoC in subjects with severe acute exacerbations of COPD. The proposed doses take into account trough levels based on PK modelling to ensure that the drug rapidly achieves and remains at effective concentrations between doses.
as §1
Dosing at Day 1, 3 and 5, maintains drug levels above 220 ng/mL out to approximately 140 to 150 hours. This achieves a plasma concentration of 5.7 μM.
The concentration based on free fraction is at or above 740 nM for the duration of the dosing interval. Cmax is approximately 2 μM based on the first dose. […] Assuming a PK variability of 50%, drug levels are 3 to 5 times above the K and so would produce high levels of inhibition, potentially in the range of 90 to 99%.

Data set [2] in a line: Plasma protein binding (free fraction) in human plasma samples. The format is in vitro ADME.
The nature of data set [3]: Highest safe dose based on toxicology margins. Here is the method: However, in order to initiate suppression of the inflammatory response the Day 1 dose in both regimes is higher than the doses on Days 3 and 5. The ‘high’ dosing regimen (regimen 1) is initiated at 75 mg which is the highest dose which can be safely administered based on toxicology margins whereas the ‘low’ dose regimen is initiated at a 40 mg dose which approximates to the mid-point in the TNF-α response curve.

The conditions of data set [4]: single oral dose; WO 2013/139809; cited from earlier work.

In the case of `Cc1ccc(C(=O)NC2CC2)cc1-n1ncc(C(=O)c2cccc(C#N)c2)c1N` [3-[5-amino-4-(3-cyanobenzoyl)-pyrazol-1-yl]-N-cyclopropyl-4-methylbenzamide], in the data set on TNF-α (doses ranging from 0.1 to 75 mg), the “reduction in TNF-α levels” value is listed as “dose-dependent reduction”. Moreover, in the data set on TNF-α (in vivo), the “dose approximating the mid-point in the TNF-α response curve” value is given as roughly 40 mg. The same molecule showed a plasma concentration in data set [1] (dosing at Day 1, 3 and 5) of 5700 nM. Further, the drug levels maintained entry in data set [1] (dosing at Day 1, 3 and 5, out to approximately 140 to 150 hours) is reported as “above 220 ng/mL”. The “concentration based on free fraction” value in data set [1] (for the duration of the dosing interval) is no less than 740 nM. In data set [1] (human, plasma, oral, based on the first dose), the Cmax was roughly 2000 nM. Further, the enzyme inhibition in data set [1] (occurs for 6 days, from drug levels versus Ki and IC50) is greater than 99%. In data set [2], this molecule had a fraction unbound of 0.13 to 0.25. For the same molecule, in data set [3], the “highest dose which can be safely administered based on toxicology margins” value turned out to be 75 mg. The “effect on recovery of AECOPD to the stable disease state” value in data set [4] was “accelerates the recovery to the stable disease state”.

As usually defined, the Cmax is the peak of the concentration-time curve. A word on the fraction unbound: it is the share of the substance not bound to proteins or other matrix.
